Test results published in US20250009737A1, “COMPOUNDS AND METHODS FOR THE TARGETED DEGRADATION OF ANDROGEN RECEPTOR” (Arvinas Operations, Inc., priority 2023, published 2025).
Where two headings read alike, the source gives them in different places.

What was measured:
Format in all cases: in vitro ADME
MATE1 = target: T1, MATE1 (Homo sapiens, UniProt Q96FL8); assay: MATE1 uptake transporter inhibition in MDCKII or HEK293 cells
T1 construct: expressed in transfected cells; host or cells: MDCKII or HEK293
T1 sequence (Q96FL8 1-570): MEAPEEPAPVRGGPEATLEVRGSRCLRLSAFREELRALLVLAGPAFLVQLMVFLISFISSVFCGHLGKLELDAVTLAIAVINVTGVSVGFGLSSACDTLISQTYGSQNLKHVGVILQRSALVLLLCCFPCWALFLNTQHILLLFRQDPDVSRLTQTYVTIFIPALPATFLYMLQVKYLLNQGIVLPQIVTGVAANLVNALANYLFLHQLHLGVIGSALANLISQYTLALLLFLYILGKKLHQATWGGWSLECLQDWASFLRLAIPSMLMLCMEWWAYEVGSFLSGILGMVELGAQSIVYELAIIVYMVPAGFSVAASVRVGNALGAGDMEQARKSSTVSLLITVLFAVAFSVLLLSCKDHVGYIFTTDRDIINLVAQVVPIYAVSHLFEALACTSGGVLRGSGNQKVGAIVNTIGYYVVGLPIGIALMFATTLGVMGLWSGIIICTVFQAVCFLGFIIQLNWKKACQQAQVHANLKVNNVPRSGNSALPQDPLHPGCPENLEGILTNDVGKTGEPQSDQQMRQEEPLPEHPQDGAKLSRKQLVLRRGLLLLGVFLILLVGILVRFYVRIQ
Experimental: (§1) In addition, the inhibition potential against efflux transporters (P-glycoprotein (Pgp) and breast cancer resistance protein (BCRP)) and uptake transporters (MATE1, MATE2-K, OATP1B1, OATP1B3, OAT1, OAT3, and OCT2) was assessed using single transporter over-expressed cell monolayers (MDCK II or HEK293) or inside-out vesicles.
(§2) The potential of Compound A to inhibit Pgp or BCRP was tested for bidirectional transport of the probe substrates in Pgp or BCRP-expressed MDCKII and control monolayers at Compound A concentrations of 0.07-5 μM. Pgp and BCR inhibition were tested in inside-out membrane vesicles prepared from HEK293 overexpressing human Pgp and BCR at concentrations of 0.01-9 μM Compound A in the presence of 4 mM MgATP or MgAMP.

CYP1A2 = target: T2, CYP1A2 (Homo sapiens, UniProt P05177); assay: Direct and time-dependent CYP1A2 inhibition in pooled human liver microsomes; conditions: pooled HLM, substrate Phenacetin 50 μM
T2 construct: evaluated in pooled human liver microsomes (HLM); from tissue; host or cells: pooled human liver microsomes
Experimental: (§3) The induction potential of Compound A on CYP enzymes was assessed in cryopreserved human hepatocytes from three donors. Following treatment for with Compound A at concentrations of 0.03-30 μM for 48 hours, mRNA levels for CYP1A2, 2B6, 2C8, 2C9, 2C19, and 3A4 were determined by semiquantitative real-time polymerase chain reaction (PCR). Test article concentrations during 24-hour incubation were determined. The potential of Compound A to cause direct and time-dependent inhibition (TDI) of the activities of CYP1A2, 2B6, 2C8, 2C9, 2C19, 2D6, and 3A4 was evaluated in pooled human liver microsomes (HLM) at 0.2-15 μM. Probe substrate concentrations around Km were used for direction inhibition and initial TDI assays. For TDI assay, Compound A was pre-incubated with pooled HLM with and without NADPH for 30 minutes prior to incubation with a single concentration of probe substrate.

Pgp = Pgp (Homo sapiens, UniProt P08183); assay: Pgp inhibition, bidirectional transport in Pgp-expressed MDCKII monolayers; set-up: expressed in transfected cells; host or cells: MDCKII
Experimental: as §1, §2

CYP1A2 mRNA = CYP1A2 mRNA induction in cryopreserved human hepatocytes; conditions: 0.03-30 μM; for CYP1A2 mRNA Fold induction: human hepatocytes, 48 hours
Experimental: as §3

Caco-2 cell monolayers = assay: Bidirectional permeability in Caco-2 cell monolayers; conditions: 1% of BSA, 120 min incubation
Experimental: The potential of Compound A to act as an efflux transporter Pgp and BCRP as well as uptake transporter OATP1B1 and 1B3 were assessed in Caco-2 and single transporter over-expressed HEK29 cells, respectively.
The potential of Compound A to act as a substrate for Pgp and BCRP was examined in Caco-2 cells at the concentrations of 0.075, 0.75, 3.75 and 7.5 μM containing 1% of BSA. After 120 min incubation, the bidirectional permeability of Compound A was determined by LC-MS/MS. The involvement of Compound A as a substrate of OATP1B1 and OATP1B3 was assessed in the uptake transporter substrate assays at 4 concentrations (0.1, 0.5, 1 and 5 μM). Compound A in cell lysates was determined by LC-MS/MS.

CYP2C8 = target: T3, CYP2C8 (Homo sapiens, UniProt P10632); assay: Direct and time-dependent CYP2C8 inhibition in pooled human liver microsomes; conditions: pooled HLM, substrate Amodiaquine 2 μM
T3 construct: evaluated in pooled human liver microsomes (HLM); from tissue; host or cells: pooled human liver microsomes
Experimental: as §3

CYP3A4 mRNA = CYP3A4 mRNA induction in cryopreserved human hepatocytes; conditions: for CYP3A4 mRNA induction, % PC: % of positive control response; for CYP3A4 mRNA Fold induction: human hepatocytes, maximal
[1] = tested on: CYP1A2, 2B6, 2C8, 2C9, 2C19, 2D6, and 3A4; assay: Direct and time-dependent inhibition of all CYPs tested in pooled human liver microsomes; conditions: HLM
Experimental: as §3

[2] = Metabolite profiling / stability in human liver microsomes
Experimental: Metabolite profiling was conducted in incubations of Compound A (2 and 10 μM) with HLM (up to 60 min), human hepatocyte suspension (up to 240 min) and human plasma (up to 360 min). In addition, Compound A (2 μM) was incubated with recombinant human CYP enzymes CYP1A2, CYP2A6, CYP2B6, CYP2C8, CYP2C9, CYP2C19, CYP2D6, CYP2E1, CYP3A4 and CYP3A5.
The DDI potential of Compound A as a victim via CYP mediated pathways was examined in HLM, human hepatocyte suspensions, and human recombinant CYP enzymes.

[3] = read-out: IC50, 30 min Pre-incubation
[4] = read-out: IC50, No Pre-incubation

Sequence of Pgp (P08183 whole entry): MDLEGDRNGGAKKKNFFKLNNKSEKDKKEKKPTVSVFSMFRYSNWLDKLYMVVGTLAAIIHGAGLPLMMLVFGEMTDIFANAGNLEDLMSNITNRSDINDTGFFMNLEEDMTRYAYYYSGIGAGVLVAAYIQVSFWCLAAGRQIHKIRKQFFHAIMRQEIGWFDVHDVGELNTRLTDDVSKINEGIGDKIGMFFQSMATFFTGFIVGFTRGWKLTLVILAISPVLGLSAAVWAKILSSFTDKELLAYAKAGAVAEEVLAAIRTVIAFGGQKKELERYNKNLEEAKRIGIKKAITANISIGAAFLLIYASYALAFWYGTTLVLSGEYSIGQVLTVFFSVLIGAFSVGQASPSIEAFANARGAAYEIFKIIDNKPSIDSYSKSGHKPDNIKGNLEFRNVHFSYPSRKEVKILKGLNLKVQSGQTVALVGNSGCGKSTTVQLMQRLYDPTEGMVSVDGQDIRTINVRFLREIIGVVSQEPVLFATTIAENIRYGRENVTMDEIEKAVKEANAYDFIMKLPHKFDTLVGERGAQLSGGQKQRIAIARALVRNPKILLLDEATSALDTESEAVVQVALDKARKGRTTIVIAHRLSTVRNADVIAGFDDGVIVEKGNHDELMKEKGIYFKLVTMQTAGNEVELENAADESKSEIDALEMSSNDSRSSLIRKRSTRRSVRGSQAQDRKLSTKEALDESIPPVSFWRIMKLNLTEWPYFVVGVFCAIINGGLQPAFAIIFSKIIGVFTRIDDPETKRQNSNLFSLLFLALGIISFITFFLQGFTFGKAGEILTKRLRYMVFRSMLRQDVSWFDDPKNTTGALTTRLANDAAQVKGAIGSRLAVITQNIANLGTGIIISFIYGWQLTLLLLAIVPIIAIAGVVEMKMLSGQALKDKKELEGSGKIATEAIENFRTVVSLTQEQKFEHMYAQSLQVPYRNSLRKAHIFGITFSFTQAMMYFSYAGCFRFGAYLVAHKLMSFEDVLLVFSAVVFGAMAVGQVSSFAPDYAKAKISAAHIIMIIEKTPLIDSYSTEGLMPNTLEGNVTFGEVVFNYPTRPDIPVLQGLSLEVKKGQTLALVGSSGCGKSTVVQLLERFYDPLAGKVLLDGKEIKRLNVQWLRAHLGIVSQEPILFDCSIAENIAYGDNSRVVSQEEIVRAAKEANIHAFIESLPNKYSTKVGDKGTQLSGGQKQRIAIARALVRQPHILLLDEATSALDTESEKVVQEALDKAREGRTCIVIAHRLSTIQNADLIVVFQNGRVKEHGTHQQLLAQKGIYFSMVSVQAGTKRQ
T2 sequence (P05177 whole entry): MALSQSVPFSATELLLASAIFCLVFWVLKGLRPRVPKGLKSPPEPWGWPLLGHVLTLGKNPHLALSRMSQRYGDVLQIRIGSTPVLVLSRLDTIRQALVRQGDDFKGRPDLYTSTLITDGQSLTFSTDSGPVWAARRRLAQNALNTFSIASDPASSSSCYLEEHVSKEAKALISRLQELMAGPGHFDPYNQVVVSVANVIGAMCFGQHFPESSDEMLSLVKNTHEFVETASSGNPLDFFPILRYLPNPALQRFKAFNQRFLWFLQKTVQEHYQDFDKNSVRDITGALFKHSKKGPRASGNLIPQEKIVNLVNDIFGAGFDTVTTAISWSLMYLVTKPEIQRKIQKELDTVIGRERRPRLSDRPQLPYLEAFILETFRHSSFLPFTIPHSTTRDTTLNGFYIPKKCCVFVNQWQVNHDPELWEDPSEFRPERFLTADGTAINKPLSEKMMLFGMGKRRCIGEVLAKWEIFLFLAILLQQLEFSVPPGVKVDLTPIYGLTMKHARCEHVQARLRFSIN
T3 sequence (P10632 whole entry): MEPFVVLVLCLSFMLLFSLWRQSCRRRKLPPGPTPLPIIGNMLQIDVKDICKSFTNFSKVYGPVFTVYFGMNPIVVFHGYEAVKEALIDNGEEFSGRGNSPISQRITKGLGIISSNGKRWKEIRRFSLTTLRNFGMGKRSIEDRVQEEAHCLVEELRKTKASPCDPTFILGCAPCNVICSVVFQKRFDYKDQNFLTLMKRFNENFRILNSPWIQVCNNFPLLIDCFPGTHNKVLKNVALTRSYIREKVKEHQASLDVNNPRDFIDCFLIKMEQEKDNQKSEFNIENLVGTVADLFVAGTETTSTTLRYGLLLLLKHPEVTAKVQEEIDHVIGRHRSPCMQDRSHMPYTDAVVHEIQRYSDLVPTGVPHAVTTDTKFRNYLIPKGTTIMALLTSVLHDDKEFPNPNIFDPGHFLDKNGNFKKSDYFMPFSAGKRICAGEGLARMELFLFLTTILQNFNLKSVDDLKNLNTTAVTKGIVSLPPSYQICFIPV

COc1cc(O[C@H]2C(C)(C)[C@H](NC(=O)c3ccc(N4CCC(CN5CCN(c6ccc(C(=O)N[C@H]7CCC(=O)NC7=O)c(F)c6)CC5)CC4)cc3)C2(C)C)ccc1C#N [Compound A, 4-(4-((1-(4-(((1R,3R)-3-(4-cyano-3-methoxyphenoxy)-2,2,4,4-tetramethylcyclobutyl)carbamoyl)phenyl)piperidin-4-yl)methyl)piperazin-1-yl)-N—((S)-2,6-dioxopiperidin-3-yl)-2-fluorobenzamide]
IC50 (MATE1; MATE1, substrate Metformin (10 μM)): 3.05 µM | EC50 (MATE1; MATE1 inhibition): 3.05 µM | inhibition at 3.75 µM (MATE1; MDCKII or HEK293 cells stably expressing MATE1, probe Metformin (10 μM), at a concentration of 3.75 μM): 52% | IC50 (CYP1A2; [3]): > 15 µM | IC50 (CYP1A2; [4]): > 15 µM | Pgp inhibition in the MDCKII bidirectional assays (Pgp; MDCKII bidirectional assays): not observed | inhibition at 5 µM (Pgp; Pgp-expressed MDCKII cell monolayers, probe Digoxin (5 μM), Pgp, Monolayers, substrate Digoxin (5 μM), read-out: Maximal % Inhibition): < 20% | IC50 (Pgp; Pgp, Monolayers, substrate Digoxin (5 μM)): > 5 µM | CYP1A2 mRNA Fold induction (CYP1A2 mRNA; Donor 1): <2 Fold | CYP1A2 mRNA Fold induction (CYP1A2 mRNA; Donor 2): <2 Fold | CYP1A2 mRNA Fold induction (CYP1A2 mRNA; Donor 3): <2 Fold | Induction of CYP1A2 mRNA (CYP1A2 mRNA; all three donors of human hepatocytes): did not induce | Permeability in Caco-2 cell monolayers (Caco-2 cell monolayers): low permeability | IC50 (CYP2C8; [3]): > 15 µM | IC50 (CYP2C8; [4]): > 15 µM | CYP3A4 mRNA induction, % PC (CYP3A4 mRNA; Donor 1): 5 % PC | CYP3A4 mRNA Fold induction (CYP3A4 mRNA; Donor 1): 8.8 Fold | CYP3A4 mRNA induction, % PC (CYP3A4 mRNA; Donor 2): 6 % PC | CYP3A4 mRNA Fold induction (CYP3A4 mRNA; Donor 2): 2.5 Fold | CYP3A4 mRNA induction, % PC (CYP3A4 mRNA; Donor 3): 5 % PC | CYP3A4 mRNA Fold induction (CYP3A4 mRNA; Donor 3): 3.3 Fold | CYP3A4 mRNA induction, % of positive control response (CYP3A4 mRNA; all three donors, at 0.1-0.3 μM): 4-6% | fold induction at 48 h (CYP3A4 mRNA; human, cryopreserved human hepatocytes, all three donors, at 0.1-0.3 μM, read-out: Maximal fold induction in CYP3A4 mRNA): 2.5 to 8.8 | Direct inhibition, maximal inhibition ([1]; all CYPs, up to 15 µM tested): ≤ 12% | TDI (time-dependent inhibition) ([1]; all CYPs, up to 15 µM tested): ≤ 15% | Direct or time-dependent inhibition ([1]; any of the CYP isoforms, 0.2-15 µM): no direct or time-dependent inhibition was observed | % Parent at 0 Min, HLM at 60 min ([2]; human liver microsomes, 60 min): 92.6% | Stability in HLM incubations ([2]; up to 60 min at 2 μM): relatively stable
